≈ marks a conversion by molar mass, not a printed value. Where two headings read alike, the source gives them in different places.
How the values were obtained:
human pathogen bacteria = experiment: Bactericidal activity (time-kill study); assay type: cell-based; details: roughly 10^7 cfu/mL in PBS pH 7.4; for time to reach 3 log reduction: time-kill, 2×MIC and 4×MIC; for cells killed: at 2×MIC and 4×MIC, within 1 hour
Description: Bactericidal activity (time-kill study): an in vitro assay was performed to test the bactericidal effect of each sophorolipid derivatives on human pathogen bacteria viability. […] After 15 min, 45 min, 1 h and 3 h incubation, cells were spread on agar plates, incubated at 37° C. for 18 hours and examined for colonies. An untreated cells vial (i.e. no SL added) was used as the control.
To further investigate if the growth inhibition by sophorolipid derivatives is associated with cell death, i.e. if sophorolipid derivatives are bactericidal or bacteriostatic, time-kill studies were performed. […] Moreover, the killing rate was higher for these sophorolipid ester derivatives than natural di-acetylated lactonic sophorolipid that requires almost 2 hours to reach a 3 log reduction.

[1] = Solubility in water / aqueous systems (statement); assay type: physicochemical; details: aqueous formulations
[2] = prior art statement; cited from earlier work
B. Subtilis = experiment: Minimum inhibitory concentration (MIC), broth microdilution; assay type: cell-based; details: for MIC: Bacillus subtilis, read-out: Minimum Inhibitory Concentration (MIC) B. Subtilis; for activity against B. Subtilis (in words): MIC assay, up to 128 μg/mL
Description: (§1) Sophorolipid ester derivatives, as well as the diacetate lactonic sophorolipid have inhibitory activity against a range of human pathogenic bacteria, which was confirmed by experiments and observations. Sophorolipid samples were dissolved in pure DMSO to a final concentration of 2.56 mg/mL that was used as a stock solution. Except the first row, the wells of a 96-well microplate were loaded with 100 μL of sterilized PBS buffer. The stock solution (20 μL) and sterilized PBS buffer pH 7.4 (180 μL) was added into the first row of the 96-well microplate and serially diluted (2-fold dilution) from 256 μg/mL to 2 μg/mL using PBS buffer. After serial dilution, 100 μL of fresh bacteria cells (10^6 cfu/mL) suspended in Soy broth (SB) or Mueller Hinton broth (MHB) culture medium were added to each well and the plates were incubated for 16 or 30 hours. Wells with only cells in 5% DMSO in PBS/medium (no SL) and with only 5% DMSO in PBS/medium (no SL and no cells) were used as positive and negative controls, respectively. […] Lactonic SL as well as all SL esters except SL hexyl ester (no activity against all strains) and SL pentyl ester (no activity against B. Subtilis) were active against all three gram-positive bacterial strains tested (B. Cereus, B. Subtilis, Listeria innocua). The unexpected result in Table 2 is that, as the chain length of the sophorolipid ester increased from methyl to ethyl, propyl and butyl, the MIC values for B. Cereus, B. Subtilis and L. Innocua decrease. The pentyl ester has similarly low MIC values as the butyl ester derivative for B. Cereus and L. Innocua.

B. Cereus = experiment: as above; assay type: cell-based; details: for MIC: Bacillus cereus, read-out: Minimum Inhibitory Concentration (MIC) B. Cereus; for activity against B. Cereus (in words): MIC assay, up to 128 μg/mL
Description: as §1

Listeria innocua = experiment: as above; assay type: cell-based; details: for MIC: Listeria innocua, read-out: Minimum Inhibitory Concentration (MIC) Listeria Innocua; for activity against Listeria innocua (in words): MIC assay, up to 128 μg/mL
Description: as §1

[3] = incubation time 16 h, 10^6 cfu/mL, no visible growth
[4] = incubation time 30 h, 10^6 cfu/mL, no visible growth

| Compound | time to reach 3 log reduction (human pathogen bacteria) | MIC (B. Subtilis; [3]) | activity against B. Subtilis (in words) (B. Subtilis) | MIC (B. Cereus; [3]) | MIC (Listeria innocua; [4]) | cells killed (human pathogen bacteria) | other results |
| --- | --- | --- | --- | --- | --- | --- | --- |
| CC(=O)OCC1OC2OC(C)CCCCCC/C=C\CCCCCCCC(=O)OC3C(COC(C)=O)OC(OC2C(O)C1O)C(O)C3O (centres unmarked) [Lactonic SL, LSL 6′,6″-diacetate, reference compound] | ~2 hour | 8 µg/mL (≈ 11.6 µM) | active | 16 µg/mL (≈ 23.2 µM) | 32 µg/mL (≈ 46.5 µM) | – | water solubility (in words) [1]: low water solubility; solubility in aqueous systems (in words) [2]: very low solubility; activity against B. Cereus (in words) (B. Cereus): active; activity against Listeria innocua (in words) (Listeria innocua): active |
| CCCCOC(=O)CCCCCCC/C=C\CCCCCCC(C)OC1OC(CO)C(O)C(O)C1OC1OC(CO)C(O)C(O)C1O (centres unmarked) [SL Butyl ester] | ≤ 1 hour | 8 µg/mL (≈ 11.8 µM) | – | 8 µg/mL (≈ 11.8 µM) | 8 µg/mL (≈ 11.8 µM) | more than 99.9% | – |
| CCOC(=O)CCCCCCC/C=C\CCCCCCC(C)OC1OC(CO)C(O)C(O)C1OC1OC(CO)C(O)C(O)C1O (centres unmarked) [SL Ethyl ester] | – | 32 µg/mL (≈ 49.2 µM) | – | 32 µg/mL (≈ 49.2 µM) | 32 µg/mL (≈ 49.2 µM) | – | – |
| COC(=O)CCCCCCC/C=C\CCCCCCC(C)OC1OC(CO)C(O)C(O)C1OC1OC(CO)C(O)C(O)C1O (centres unmarked) [SL Methyl ester] | ≤ 1 hour | – | – | – | – | more than 99.9% | MIC (B. Subtilis; 16 h): 32 µg/mL (≈ 50.3 µM); MIC (B. Cereus; 16 h): 32 µg/mL (≈ 50.3 µM); MIC (Listeria innocua; 30 h): 64 µg/mL (≈ 101 µM) |
| CCCOC(=O)CCCCCCC/C=C\CCCCCCC(C)OC1OC(CO)C(O)C(O)C1OC1OC(CO)C(O)C(O)C1O (centres unmarked) [SL Propyl ester] | ≤ 1 hour | 25 µg/mL (≈ 37.6 µM) | – | 16 µg/mL (≈ 24.1 µM) | 25 µg/mL (≈ 37.6 µM) | more than 99.9% | – |
| SL Hexyl ester | – | – | no activity | – | – | – | Minimum Inhibitory Concentration (MIC) B. Subtilis (B. Subtilis; [3]): >128 µg/mL; activity against B. Cereus (in words) (B. Cereus): no activity; Minimum Inhibitory Concentration (MIC) B. Cereus (B. Cereus; [3]): >128 µg/mL; activity against Listeria innocua (in words) (Listeria innocua): no activity; Minimum Inhibitory Concentration (MIC) Listeria Innocua (Listeria innocua; [4]): >128 µg/mL |
| SL Pentyl ester | – | – | no activity | – | – | – | Minimum Inhibitory Concentration (MIC) B. Subtilis (B. Subtilis; [3]): >128 µg/mL; Minimum Inhibitory Concentration (MIC) B. Subtilis (B. Subtilis; incubation time 16 h, 10^6 cfu/mL, no visible growth, listed as pentyl ester): > 128 µg/mL; Minimum Inhibitory Concentration (MIC) B. Cereus (B. Cereus; [3]): 8 µg/mL; Minimum Inhibitory Concentration (MIC) Listeria Innocua (Listeria innocua; [4]): 8 µg/mL |
